Columns and labels:
BVDV [1] = test: BVDV inactivation in spiked RBCC by doxorubicin alone; format: cell-based, Bovine Viral Diarrhea Virus; details: for Unwashed Titer / Washed Titer: 37° C. 2 hours in the dark; for Unwashed Titer: doxorubicin Low = 0.53 mM, High = 1.6 mM; for Combined VRF: treatment plus washing, compared to mean unwashed RBC controls; for Unwashed VRF: compared to mean titer of untreated RBC controls; for Washed VRF: compared to mean titer of washed untreated RBC controls
Procedure: Two levels of doxorubicin (low and high), RBCC, virus and DMEM (—Ca^++, —Mg^++) were prepared to all contain equivalent titers of BVDV calculated to be 6.23 log10 TCID50/mL (logs) based on the titer of the original virus stock.
The components were mixed and incubated at 37° C. for 2 hours in the dark followed by titration of unwashed and washed samples as previously described. Washing rows of wells with dilutions 1 and 2 was performed the next day. Final CPE were read 2 weeks post-infection. Cells were also monitored for cytotoxicity from the treatment components other than the virus 1 day and 2 weeks post-infection as in previous experiments.
The various combinations tested, the titers obtained and the calculated VRFs compared to the mean titer of the untreated RBC controls are listed in Table 4. There was no hemolysis or clumping for any of the samples at the end of the treatment period.

[2] = test system: Human Adenovirus-2 (HAd-2); test: Earlier inactivation of HAd-2 in unwashed RBCC samples; format: cell-based; details: doxorubicin alone, observed previously
BVDV [3] = test: BVDV inactivation in spiked human RBCC by hypericin with luciferase system; format: cell-based, Bovine Viral Diarrhea Virus; details: for Unwashed Titer / Washed Titer: RT 2 hours in the dark; for Unwashed Titer / Unwashed VRF: unwashed samples; for Unwashed Titer: doses per sample label; for Washed Titer / Washed VRF: washed samples; for Combined VRF: treatment plus washing, compared to unwashed untreated RBC control; for Unwashed VRF: compared to titer of untreated RBC control; for Washed VRF: compared to washed untreated RBC control
Procedure: Ten different combinations of DMEM (—Ca^++, —Mg^++), RBCC, virus, hypericin, Luciferin, ATP and luciferase were prepared to all contain equivalent titers of BVDV calculated to be 6.48 log10TCID50/mL based on the titer of the original virus stock. The concentrations of hypericin tested were 0, 40 and 200 μg/mL. Luciferase was tested at 0, 0.8 and 4.0 μM. Luciferin and ATP were present at 80 and 800 μM respectively when luciferase was present and absent in the absence of luciferase.
The components were mixed and incubated at RT for 2 hours in the dark followed by titration of unwashed and washed samples as previously described. Washing rows of wells with dilutions 1 and 2 was performed 3 days post-infection. Final CPEs were read 10 days post-infection.
The various combinations tested, the titers obtained and the calculated VRFs compared to the titer of the untreated RBC control are listed in Table 2.

RBC = test: Cytotoxicity, interference, RBC morphology and integrity after hypericin treatment; format: cell-based
Procedure: Cytotoxicity and interference studies are performed per CPMP/FDA guidelines to calculate the reduction in viral titers due to these factors and exclude them from the calculated reduction factors resulting from the antiviral treatment. The antiviral compounds are removed from the system by washing the erythrocytes. Appropriate controls are kept to determine the contribution of washing to the viral reduction factors.

| SMILES | Unwashed Titer (BVDV [1]) [log10 TCID50/mL] | Washed Titer (BVDV [1]) [log10 TCID50/mL] | Combined VRF (BVDV [1]) [logs] | Unwashed VRF (BVDV [1]) [logs] | Washed VRF (BVDV [1]) [logs] | Unwashed Titer (BVDV [3]) [log10TCID50/mL] | Washed Titer (BVDV [3]) [log10TCID50/mL] | Combined VRF (BVDV [3]) [logs] | Unwashed VRF (BVDV [3]) [logs] | Washed VRF (BVDV [3]) [logs] | also measured |
| --- | --- | --- | --- | --- | --- | --- | --- | --- | --- | --- | --- |
| COc1cccc2c1C(=O)c1c(O)c3c(c(O)c1C2=O)C[C@@](O)(C(=O)CO)C[C@@H]3O[C@H]1C[C@H](N)[C@H](O)[C@H](C)O1 [Dox-H, Doxorubicin] | 3.10 | 3.10 | 2.50 | 2.50 | −0.19 | – | – | – | – | – | – |
| COc1cccc2c1C(=O)c1c(O)c3c(c(O)c1C2=O)C[C@@](O)(C(=O)CO)C[C@@H]3O[C@H]1C[C@H](N)[C@H](O)[C@H](C)O1 [Dox-L, Doxorubicin] | 3.23 | 3.10 | 2.50 | 2.38 | −0.19 | – | – | – | – | – | – |
| COc1cccc2c1C(=O)c1c(O)c3c(c(O)c1C2=O)C[C@@](O)(C(=O)CO)C[C@@H]3O[C@H]1C[C@H](N)[C@H](O)[C@H](C)O1 [Doxorubicin, (1S,3S)-3-glycoloyl-3,5,12-trihydroxy-10-methoxy-6,11-dioxo-1,2,3,4,6,11-hexahydrotetracen-1-yl 3-amino-2,3,6-trideoxy-α-L-lyxo-hexo-pyranoside] | – | – | – | – | – | – | – | – | – | – | viral inactivation activity against BVDV (BVDV [1]; doxorubicin treatment alone): has viral inactivation activity; viral inactivation activity against HAd-2 virus [2]: has viral inactivation activity |
| Cc1cc(O)c2c(=O)c3c(O)cc(O)c4c5c(O)cc(O)c6c(=O)c7c(O)cc(C)c8c1c2c(c34)c(c78)c65 [HH-LN, Hypericin] | – | – | – | – | – | 3.10 | 2.48 | 3.87 | 3.25 | 1.50 | – |
| Cc1cc(O)c2c(=O)c3c(O)cc(O)c4c5c(O)cc(O)c6c(=O)c7c(O)cc(C)c8c1c2c(c34)c(c78)c65 [HL-LN, Hypericin] | – | – | – | – | – | 3.48 | <2.34 | >4.01 | 2.87 | >1.64 | – |
| Cc1cc(O)c2c(=O)c3c(O)cc(O)c4c5c(O)cc(O)c6c(=O)c7c(O)cc(C)c8c1c2c(c34)c(c78)c65 [Hypericin] | – | – | – | – | – | – | – | – | – | – | impact on cytotoxicity, interference, RBC morphology and integrity (RBC; hypericin 40 μg/mL with CDP-Star 0.1 mM): very little impact; impact on cytotoxicity, interference, RBC morphology and integrity (RBC; hypericin 40 μg/mL with luciferase 0.16 μM): very little impact |

— patent US20240335575A1, “METHOD AND APPARATUS FOR INACTIVATING PATHOGENS IN UNITS OF WHOLE BLOOD USING SUPERPARAMAGNETIC NANOPARTICLES COATED WITH CHEMILUMINESCENCE REAGENTS AND BROAD-SPECTRUM ANTI-VIRAL THERAPEUTICS” (Aphios Corporation, priority 2021, published 2024)
